Reference: BindingDB's records for doi:10.1016/j.bmcl.2017.09.009 (St. John'S University, 2017)
Several values for one entry are separate records, joined by “and”; a condition that tells them apart may be missing. Identical values can stand only once.

What was measured:
[1] = Inhibition of ABCG2 in human H460/MX20 cells assessed as potentiation of mitoxantrone induced antiproliferative activity by measuring mitoxantrone IC50 at 10 uM preincubated for 2 hrs followed by mitoxantrone addition measured after 72 hrs by MTT assay (Rvb = 6.161 +/- 0.172 microM)
[2] = Inhibition of ABCG2 in human H460/MX20 cells assessed as potentiation of mitoxantrone induced antiproliferative activity by measuring mitoxantrone IC50 at 3 uM preincubated for 2 hrs followed by mitoxantrone addition measured after 72 hrs by MTT assay (Rvb = 6.161 +/- 0.172 microM)
[3] = target: T1, Broad substrate specificity ATP-binding cassette transporter ABCG2 (Homo sapiens, UniProt Q9UNQ0); assay: (§1) Inhibition of ABCG2 in human H460/MX20 cells assessed as potentiation of mitoxantrone induced antiproliferative activity by measuring mitoxantrone IC50 at 10 uM preincubated for 2 hrs followed by mitoxantrone addition measured after 72 hrs by MTT assay (Rvb = 6.161 +/- 0.172 microM)
T1 sequence (Q9UNQ0 whole entry): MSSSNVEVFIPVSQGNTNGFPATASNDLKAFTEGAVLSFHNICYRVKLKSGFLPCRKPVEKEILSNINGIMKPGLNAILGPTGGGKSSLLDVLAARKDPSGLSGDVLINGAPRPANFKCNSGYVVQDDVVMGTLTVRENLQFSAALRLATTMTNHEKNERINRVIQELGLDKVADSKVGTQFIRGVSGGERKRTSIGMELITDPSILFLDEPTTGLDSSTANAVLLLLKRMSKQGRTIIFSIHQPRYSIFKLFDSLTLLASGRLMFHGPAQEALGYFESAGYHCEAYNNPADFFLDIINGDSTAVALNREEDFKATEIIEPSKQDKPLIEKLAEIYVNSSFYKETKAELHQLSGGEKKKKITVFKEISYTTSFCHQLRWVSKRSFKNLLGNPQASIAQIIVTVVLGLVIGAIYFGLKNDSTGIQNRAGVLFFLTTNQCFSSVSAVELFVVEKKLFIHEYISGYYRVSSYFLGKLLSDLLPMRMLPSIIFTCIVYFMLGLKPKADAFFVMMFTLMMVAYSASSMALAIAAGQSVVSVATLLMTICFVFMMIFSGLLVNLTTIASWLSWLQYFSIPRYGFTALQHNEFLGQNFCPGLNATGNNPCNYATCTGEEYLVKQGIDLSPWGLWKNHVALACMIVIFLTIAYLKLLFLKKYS

[4] = Inhibition of ABCG2 in human H460/MX20 cells assessed as potentiation of mitoxantrone induced antiproliferative activity by measuring mitoxantrone IC50 at 3 uM preincubated for 2 hrs followed by mitoxantrone addition measured after 72 hrs by MTT assay (Rvb = 6.161 +/- 0.172 microM); remark: listed apart in the source
[5] = Inhibition of ABCG2 in human H460/MX20 cells assessed as potentiation of mitoxantrone induced antiproliferative activity by measuring mitoxantrone IC50 at 1 uM preincubated for 2 hrs followed by mitoxantrone addition measured after 72 hrs by MTT assay (Rvb = 6.161 +/- 0.172 microM)
[6] = target: T1, Broad substrate specificity ATP-binding cassette transporter ABCG2; assay: Inhibition of ABCG2 in human H460/MX20 cells assessed as potentiation of mitoxantrone induced antiproliferative activity by measuring mitoxantrone IC50 at 3 uM preincubated for 2 hrs followed by mitoxantrone addition measured after 72 hrs by MTT assay (Rvb = 6.161 +/- 0.172 microM)
[7] = target: T1, Broad substrate specificity ATP-binding cassette transporter ABCG2; assay: ChEBML_1696291
Procedure: as §1

Compound	IC50 [1] [nM]	IC50 [2]	IC50 [5] [nM]	other results
COc1cccc(-n2nnc(-c3ccccc3NC(=O)Nc3ccc(NC(C)=O)cc3)n2)c1	325	–	–	–
COc1ccc(-n2nnc(-c3ccccc3NC(=O)Nc3ccc([N+](=O)[O-])cc3)n2)cc1	–	541 nM	–	IC50 [3]: 331 nM
COc1cccc(-n2nnc(-c3ccccc3NC(=O)Nc3ccc(N=C=S)cc3)n2)c1	–	667 nM	–	–
COc1ccc(-n2nnc(-c3ccccc3NC(=O)c3ccc([N+](=O)[O-])cc3)n2)cc1	378	–	587	IC50 [4]: 535 nM
COc1cccc(-n2nnc(-c3ccccc3NC(=O)c3ccc([N+](=O)[O-])cc3)n2)c1	–	–	585	–
COc1cccc(-n2nnc(-c3ccccc3NC(=O)Nc3ccc(NC(=O)CBr)cc3)n2)c1	–	–	798	IC50 [3]: 472 nM
COc1cccc(-n2nnc(-c3ccccc3NC(=O)c3ccc(N=[N+]=[N-])cc3)n2)c1	–	1500 nM	1620	–
COc1cccc(-n2nnc(-c3ccccc3NC(=O)c3ccc(N=C=S)cc3)n2)c1	–	1050 nM and 952 nM	–	–
COc1cccc(-n2nnc(-c3ccccc3NC(=O)Nc3ccc(N=[N+]=[N-])cc3)n2)c1	–	–	913	–
COc1cccc(-n2nnc(-c3ccccc3NC(=O)Nc3ccc(N)cc3)n2)c1	379	–	838	–
CCCc1ccc(NC(=O)c2ccccc2NC(=O)c2ccc([N+](=O)[O-])cc2)cc1	–	783 nM	833	IC50 [3]: 594 nM
COc1cccc(-n2nnc(-c3ccccc3NC(=O)Nc3ccccc3[N+](=O)[O-])n2)c1	882	978 nM	–	–
CCCc1ccc(NC(=O)c2ccccc2NC(=O)c2ccc(OC)cc2)cc1	1660	–	–	–
COc1ccc(C(=O)Nc2ccccc2-c2nnn(-c3ccc(OC)cc3)n2)cc1	492	505 nM	746	–
COc1cccc(-n2nnc(-c3ccccc3NC(=O)c3ccc(NC(=O)CBr)cc3)n2)c1	283	–	–	IC50 [6]: 446 nM
CCCc1ccc(NC(=O)c2ccccc2NC(=O)Nc2ccc([N+](=O)[O-])cc2)cc1	–	482 nM	622	–
CCCc1ccc(NC(=O)c2ccccc2NC(=O)Nc2ccccc2[N+](=O)[O-])cc1	–	2560 nM	–	IC50 [3]: 1120 nM
CCCc1ccc(NC(=O)c2ccccc2NC(=O)Nc2cccc([N+](=O)[O-])c2)cc1	–	–	651	–
CCCc1ccc(C(=O)Nc2ccccc2-c2nnn(-c3cccc(OC)c3)n2)cc1	131	–	–	–
O=C(Nc1ccc([N+](=O)[O-])cc1)Nc1ccccc1C(=O)Nc1ccc(C(F)(F)F)cc1	452	–	–	IC50 [7]: 711 nM
CCCc1ccc(NC(=O)c2ccccc2NC(=O)Nc2ccc(OC)cc2)cc1	–	–	3370	IC50 [3]: 985 nM
COc1ccc2c3c([nH]c2c1)[C@H](C=C(C)C)N1C(=O)[C@@H]2CCCN2C(=O)[C@@H]1C3 [Fumitremorgin C]	–	451 nM	612	–
COc1cccc(-n2nnc(-c3ccccc3NC(=O)c3ccccc3[N+](=O)[O-])n2)c1	–	–	–	IC50 [3]: 1100 nM
COc1cccc(-n2nnc(-c3ccccc3NC(=O)c3ccc(N)cc3)n2)c1	299	–	–	IC50 [6]: 491 nM
COc1cccc(-n2nnc(-c3ccccc3NC(=O)Nc3ccc([N+](=O)[O-])cc3)n2)c1	403	–	–	–
COc1cccc(-n2nnc(-c3ccccc3NC(=O)c3ccc(NC(C)=O)cc3)n2)c1	1200	–	1360	IC50 [4]: 1320 nM
CCCc1ccc(NC(=O)c2ccccc2NC(=O)Nc2ccc(Br)cc2)cc1	–	–	2660	IC50 [6]: 2120 nM
COc1cccc(-n2nnc(-c3ccccc3NC(=O)c3cccc([N+](=O)[O-])c3)n2)c1	–	–	1800	–
